# Reference: patent US20220388964A1 (HiberCell, Inc., priority 2019, published 2022)
# Molecular target: GCN2 (Homo sapiens, UniProt Q9P2K8)
# Assay: TR-FRET biochemical assay for inhibition of GCN2 (Example 106, for Example 1-4BB)
# Conditions: Table 8
# GCN2, sequence (Q9P2K8 whole entry): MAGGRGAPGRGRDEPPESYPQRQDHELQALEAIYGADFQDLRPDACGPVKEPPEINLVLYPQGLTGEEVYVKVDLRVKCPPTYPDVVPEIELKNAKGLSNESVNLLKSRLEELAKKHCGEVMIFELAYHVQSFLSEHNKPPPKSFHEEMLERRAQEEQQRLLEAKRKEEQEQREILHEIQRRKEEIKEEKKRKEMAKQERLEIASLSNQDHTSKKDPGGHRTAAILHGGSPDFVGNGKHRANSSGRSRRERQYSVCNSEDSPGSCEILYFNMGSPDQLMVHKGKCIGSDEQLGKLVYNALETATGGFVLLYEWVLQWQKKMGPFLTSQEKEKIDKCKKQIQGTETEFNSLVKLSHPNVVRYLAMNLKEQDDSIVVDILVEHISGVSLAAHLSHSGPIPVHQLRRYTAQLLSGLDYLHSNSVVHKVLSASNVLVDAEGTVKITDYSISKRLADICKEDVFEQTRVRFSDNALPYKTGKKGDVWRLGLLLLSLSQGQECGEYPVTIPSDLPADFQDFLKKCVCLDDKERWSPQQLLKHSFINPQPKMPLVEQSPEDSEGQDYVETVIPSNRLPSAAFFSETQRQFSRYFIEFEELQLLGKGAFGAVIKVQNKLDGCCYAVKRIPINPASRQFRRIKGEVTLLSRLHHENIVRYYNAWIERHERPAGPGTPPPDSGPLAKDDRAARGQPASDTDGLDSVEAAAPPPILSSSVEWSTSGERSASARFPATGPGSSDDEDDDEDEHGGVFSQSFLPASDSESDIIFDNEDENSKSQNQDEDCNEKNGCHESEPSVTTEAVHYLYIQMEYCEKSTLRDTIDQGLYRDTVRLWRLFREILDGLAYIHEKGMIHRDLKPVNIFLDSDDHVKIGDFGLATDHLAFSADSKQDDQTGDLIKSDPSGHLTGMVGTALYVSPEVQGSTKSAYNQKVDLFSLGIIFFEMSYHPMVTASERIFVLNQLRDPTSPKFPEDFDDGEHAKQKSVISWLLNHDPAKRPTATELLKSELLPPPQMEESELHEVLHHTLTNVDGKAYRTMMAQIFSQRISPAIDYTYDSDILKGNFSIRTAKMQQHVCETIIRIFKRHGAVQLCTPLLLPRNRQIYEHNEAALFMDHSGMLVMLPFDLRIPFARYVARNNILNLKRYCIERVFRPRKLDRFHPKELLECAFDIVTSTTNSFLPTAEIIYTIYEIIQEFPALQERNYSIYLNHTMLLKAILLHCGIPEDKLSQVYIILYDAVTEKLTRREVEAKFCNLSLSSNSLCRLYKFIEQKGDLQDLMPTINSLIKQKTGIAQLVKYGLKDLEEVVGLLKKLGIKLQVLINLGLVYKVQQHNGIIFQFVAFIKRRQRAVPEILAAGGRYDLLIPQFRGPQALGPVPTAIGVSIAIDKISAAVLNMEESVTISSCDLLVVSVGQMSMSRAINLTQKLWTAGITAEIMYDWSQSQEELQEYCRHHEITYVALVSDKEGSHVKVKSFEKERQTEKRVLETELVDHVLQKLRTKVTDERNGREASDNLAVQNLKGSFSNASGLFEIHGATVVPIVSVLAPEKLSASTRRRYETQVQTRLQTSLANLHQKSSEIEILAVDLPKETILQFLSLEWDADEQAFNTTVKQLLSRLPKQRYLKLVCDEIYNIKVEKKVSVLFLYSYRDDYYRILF
row,IC50 [nM],SMILES
1,< 500,"Cc1ccc(S(=O)(=O)Nc2ccc(F)c(-c3ccc4c(-c5ncc[nH]5)n[nH]c4c3F)c2F)c(C)n1 [Example 2AA, N-(2,4-difluoro-3-(7-fluoro-3-(1H-imidazol-2-yl)-1H-indazol-6-yl)phenyl)-2,6-dimethyl-pyridine-3-sulfonamide]"
2,< 500,"COc1ncc(Cl)cc1S(=O)(=O)Nc1cccc(-c2ccc3c(-c4ncc[nH]4)n[nH]c3c2F)c1C [Example 2P, 5-chloro-N-(3-(7-fluoro-3-(1H-imidazol-2-yl)-1H-indazol-6-yl)-2-methylphenyl)-2-methoxypyridine-3-sulfonamide]"
3,< 500,"O=S(=O)(Nc1ccc(F)c(-c2ccc3c(-c4ncc[nH]4)n[nH]c3c2F)c1F)c1cccc(Cl)c1F [Example 2BB, 3-chloro-N-(2,4-difluoro-3-(7-fluoro-3-(1H-imidazol-2-yl)-1H-indazol-6-yl)phenyl)-2-fluorobenzenesulfonamide]"
4,< 500,"COc1ncccc1S(=O)(=O)Nc1ncc(F)c(-c2ccc3c(-c4ncc[nH]4)n[nH]c3c2F)c1F [Example 2CL, N-(3,5-difluoro-4-(7-fluoro-3-(1H-imidazol-2-yl)-1H-indazol-6-yl)pyridin-2-yl)-2-methoxypyridine-3-sulfonamide]"
5,< 500,"O=S(=O)(Nc1ccc(F)c(-c2ccc3c(-c4ncc[nH]4)n[nH]c3c2)c1F)c1cc(Cl)ccc1Cl [Example 2AV, N-(3-(3-(1H-imidazol-2-yl)-1H-indazol-6-yl)-2,4-difluorophenyl)-2,5-dichlorobenzenesulfonamide]"
6,< 500,"COc1ncc(Cl)cc1S(=O)(=O)Nc1ccc(F)c(-c2ccc3c(C(=O)NCCO)n[nH]c3c2F)c1F [Example 2CH, 6-(3-((5-chloro-2-methoxy-pyridine)-3-sulfonamido)-2,6-difluorophenyl)-7-fluoro-N-(2-hydroxyethyl)-1H-indazole-3-carboxamide]"
7,2500 to 10000,"Cc1n[nH]c2cc(-c3c(F)ccc(NS(=O)(=O)c4cc(F)ccc4F)c3F)ccc12 [Example 2CC, N-(2,4-difluoro-3-(3-methyl-1H-indazol-6-yl)phenyl)-2,5-difluorobenzenesulfonamide]"
8,< 500,"COc1ncc(Cl)cc1S(=O)(=O)Nc1cccc(-c2ccc3c(-c4ncc[nH]4)n[nH]c3c2F)c1Cl [Example 2O, 5-chloro-N-(2-chloro-3-(7-fluoro-3-(1H-imidazol-2-yl)-1H-indazol-6-yl)phenyl)-2-methoxy-pyridine-3-sulfonamide]"
9,< 500,"COc1ncc(Cl)cc1S(=O)(=O)Nc1ccc(F)c(-c2ccc3c(C(N)=O)n[nH]c3c2F)c1F [Example 2Z, 6-(3-((5-chloro-2-methoxy-pyridine)-3-sulfonamido)-2,6-difluorophenyl)-7-fluoro-1H-indazole-3-carboxamide]"
10,2500 to 10000,"Cn1nncc1S(=O)(=O)Nc1ccc(F)c(-c2ccc3c(-c4ncc[nH]4)n[nH]c3c2F)c1F [Example 2X, N-(2,4-difluoro-3-(7-fluoro-3-(1H-imidazol-2-yl)-1H-indazol-6-yl)phenyl)-1-methyl-1H-1,2,3-triazole-5-sulfonamide]"

# Same assay, conditions: Table 9
row,IC50 [nM],SMILES
1,< 500,"COc1ncc(Cl)cc1S(=O)(=O)Nc1ccc(F)c(-c2ccc3c(C(=O)Nc4c[nH]nc4C)n[nH]c3c2F)c1F [Example 3CS, 6-(3-((5-chloro-2-methoxy-pyridine)-3-sulfonamido)-2,6-difluorophenyl)-7-fluoro-N-(3-methyl-1H-pyrazol-4-yl)-1H-indazole-3-carboxamide]"
2,< 500,"COc1ncc(Cl)cc1S(=O)(=O)Nc1cc(F)cc(-c2ccc3c(-c4ncc[nH]4)n[nH]c3c2F)c1F [Example 3C, 5-chloro-N-(2,5-difluoro-3-(7-fluoro-3-(1H-imidazol-2-yl)-1H-indazol-6-yl)phenyl)-2-methoxypyridine-3-sulfonamide]"
3,< 500,"Cc1ncc(F)cc1S(=O)(=O)Nc1ccc(F)c(-c2ccc3c(C(N)=O)n[nH]c3c2F)c1F [Example 3BA, 6-(2,6-difluoro-3-((5-fluoro-2-methylpyridine)-3-sulfon-amido)phenyl)-7-fluoro-1H-indazole-3-carboxamide]"
4,500 to 2500,"COc1ncc(F)cc1S(=O)(=O)Nc1cccc(-c2ccc3c(C(=O)NC[C@H](O)CO)n[nH]c3c2F)c1F [Example 3AY, 6-(2-fluoro-3-((5-fluoro-2-methoxypyridine)-3-sulfonamido)phenyl)-N-((S)-2,3-dihydroxypropyl)-7-fluoro-1H-indazole-3-carboxamide]"
5,> 10000,"COc1ncncc1S(=O)(=O)Nc1ccc(F)c(-c2ccc3c(C(=O)NCCCN(C)C)n[nH]c3c2F)c1F [Example 3CM, 6-(2,6-difluoro-3-((4-methoxypyrimidine)-5-sulfonamido)phenyl)-N-(3-(dimethylamino)propyl)-7-fluoro-1H-indazole-3-carboxamide]"
6,500 to 2500,"COc1ncc(Cl)cc1S(=O)(=O)Nc1ccc(F)c(-c2ccc3c(C(=O)Nc4nnn(C)n4)n[nH]c3c2F)c1F [Example 3CZ, 6-(3-((5-chloro-2-methoxy-pyridine)-3-sulfonamido)-2,6-difluorophenyl)-7-fluoro-N-(2-methyl-2H-tetrazol-5-yl)-1H-indazole-3-carboxamide]"
7,500 to 2500,"COc1ncc(F)cc1S(=O)(=O)Nc1cc(F)cc(-c2ccc3c(C(=O)N[C@H]4CCN(C)C4)n[nH]c3c2F)c1F [Example 3BT, 6-(3-((5-fluoro-2-methoxy-pyridine)-3-sulfonamido)-2,5-difluorophenyl)-7-fluoro-N-((S)-1-methylpyrrolidin-3-yl)-1H-indazole-3-carboxamide]"
8,< 500,"O=S(=O)(Nc1ccc(F)c(-c2ccc3c(-c4ncc[nH]4)n[nH]c3c2F)c1F)c1cccn2ccnc12 [Example 3O, N-(2,4-difIuoro-3-(7-fluoro-3-(1H-imidazol-2-yl)-1H-indazol-6-yl)phenyl)-imidazo[1,2-a]pyridine-8-sulfonamide]"
9,< 500,"COc1ncc(Cl)cc1S(=O)(=O)Nc1ccc(F)c(-c2ccc3c(C(=O)Nc4cnn(CCO)c4)n[nH]c3c2F)c1F [Example 3CT, 6-(3-((5-chloro-2-methoxy-pyridine)-3-sulfonamido)-2,6-difluorophenyl)-7-fluoro-N-(1-(2-hydroxyethyl)-1H-pyrazol-4-yl)-1H-indazole-3-carboxamide]"
10,500 to 2500,"COc1ncc(F)cc1S(=O)(=O)Nc1cccc(-c2ccc3c(C(=O)NC[C@@H](O)CO)n[nH]c3c2F)c1F [Example 3AX, 6-(2-fluoro-3-((5-fluoro-2-methoxypyridine)-3-sulfonamido)phenyl)-N-((R)-2,3-dihydroxypropyl)-7-fluoro-1H-indazole-3-carboxamide]"
11,500 to 2500,COc1ncc(F)cc1S(=O)(=O)Nc1nccc(-c2ccc3c(-c4ncc[nH]4)n[nH]c3c2F)c1C#N [Example 31]
12,< 500,"COc1ncc(C#N)cc1S(=O)(=O)Nc1ccc(F)c(-c2ccc3c(-c4ncc[nH]4)n[nH]c3c2F)c1F [Example 3DJ, 5-cyano-N-(2,4-difluoro-3-(7-fluoro-3-(1H-imidazol-2-yl)-1H-indazol-6-yl)phenyl)-2-methoxypyridine-3-sulfonamide]"
13,< 500,"COc1nscc1S(=O)(=O)Nc1cc(F)cc(-c2ccc3c(-c4ncc[nH]4)n[nH]c3c2F)c1F [Example 3BZ, N-(2,5-difluoro-3-(7-fluoro-3-(1H-imidazol-2-yl)-1H-indazol-6-yl)phenyl)-3-methoxyisothiazole-4-sulfonamide]"
14,2500 to 10000,"NC(=O)c1n[nH]c2c(F)c(-c3c(F)ccc(NS(=O)(=O)c4cccn5ccnc45)c3F)ccc12 [Example 3AA, 6-(2,6-difluoro-3-(imidazo-[1,2-a]pyridine-8-sulfon-amido)phenyl)-7-fluoro-1H-indazole-3-carboxamide]"
15,500 to 2500,"Cc1ccc(S(=O)(=O)Nc2ccc(F)c(-c3ccc4c(C(=O)NCCCO)n[nH]c4c3F)c2F)c(C)n1 [Example 3CP, 6-(3-((2,6-dimethylpyridine)-3-sulfonamido)-2,6-difluorophenyl)-7-fluoro-N-(3-hydroxypropyl)-1H-indazole-3-carboxamide]"
16,< 500,"COc1ncc(Cl)cc1S(=O)(=O)Nc1ccc(F)c(-c2ccc3c(C(=O)N[C@@H]4CCN(C)C4)n[nH]c3c2F)c1F [Example 3AD, 6-(3-((5-chloro-2-methoxy-pyridine)-3-sulfonamido)-2,6-difluorophenyl)-7-fluoro-N-((R)-1-methylpyrrolidin-3-yl)-1H-indazole-3-carboxamide]"
17,< 500,"COc1ncc(Cl)cc1S(=O)(=O)Nc1cc(F)cc(-c2ncc3c(-c4ncc[nH]4)n[nH]c3c2F)c1F [Example 36, 5-chloro-N-[2,5-difluoro-3-[7-fluoro-3-(1H-imidazol-2-yl)-1H-pyrazolo[4,3-c]pyridin-6-yl]phenyl]-2-methoxy-pyridine-3-sulfonamide]"
18,< 500,"Cc1c(CO)cc(F)cc1S(=O)(=O)Nc1ccc(F)c(-c2ccc3c(-c4ncc[nH]4)n[nH]c3c2F)c1F [Example 32, N-(2,4-Difluoro-3-(7-fluoro-3-(1H-imidazol-2-yl)-1H-indazol-6-yl)phenyl)-5-fluoro-3-(hydroxymethyl)-2-methylbenzenesulfonamide]"
19,500 to 2500,"COc1ncc(C#N)cc1S(=O)(=O)Nc1ccc(F)c(-c2ccc3c(C(=O)NCCCN(C)C)n[nH]c3c2F)c1F [Example 3BU, 6-(3-((5-cyano-2-methoxy-pyridine)-3-sulfonamido)-2,6-difluorophenyl)-N-(3-(dimethylamino)propyl)-7-fluoro-1H-indazole-3-carboxamide]"
20,< 500,O=C1CCc2c1cc(F)cc2S(=O)(=O)Nc1ccc(F)c(-c2ccc3c(C(=O)Nc4cn[nH]c4)n[nH]c3c2F)c1F [Example 4AD]
21,< 500,"COc1ncc(F)cc1S(=O)(=O)Nc1ccc(F)c(-c2ccc3c(C(N)=O)n[nH]c3c2F)c1F [Example 3T, 6-(2,6-difluoro-3-((5-fluoro-2-methoxypyridine)-3-sulfonamido)phenyl)-7-fluoro-1H-indazole-3-carboxamide]"

row,SMILES,IC50 [nM]
1,"COc1ncncc1S(=O)(=O)Nc1ccc(F)c(-c2ccc3c(C(=O)NCCCO)n[nH]c3c2F)c1F [Example 3CL, 6-(2,6-difluoro-3-((4-methoxypyrimidine)-5-sulfonamido)phenyl)-7-fluoro-N-(3-hydroxypropyl)-1H-indazole-3-carboxamide]",> 10000
